Test results taken from PubChem BioAssay AID248 (DTP/NCI, 2004).
Several values for one entry are separate records, joined by “and”; a condition that tells them apart may be missing. Identical values can stand only once. Inconclusive results and toxic doses are left out. Cut-off read from the data, not from the text of the source: active = T/C of 150% or more; inactive = T/C below 125%.

Test system: L1210 leukemia ip in BDF1 mice, survival T/C
Assay: NCI In Vivo Anticancer Drug Screen. Data for tumor model L1210 Leukemia (intraperitoneal) in B6D2F1 (BDF1) mice
Conditions: higher = longer survival
How it was run: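 Transplanted-tumor mice were given test agent; controls received vehicle only. Survival readings from the two groups were divided (treated over control).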

[1] = endpoint: mean survival time, dose: 100.0 mg/kg/injection, schedule: Q01DX001 (ip), vehicle: Klucel (hydroxypropylcellulose) (HPC)
[2] = endpoint: mean survival time, dose: 100.0 mg/kg/injection, schedule: Q01DX009 (ip), vehicle: Klucel (hydroxypropylcellulose) (HPC)
[3] = endpoint: mean survival time, dose: 100.0 mg/kg/injection, schedule: Q04DX003 (ip), vehicle: Klucel (hydroxypropylcellulose) (HPC)
[4] = endpoint: mean survival time, dose: 200.0 mg/kg/injection, schedule: Q01DX001 (ip), vehicle: Klucel (hydroxypropylcellulose) (HPC)
[5] = endpoint: mean survival time, dose: 200.0 mg/kg/injection, schedule: Q01DX009 (ip), vehicle: Klucel (hydroxypropylcellulose) (HPC)
[6] = endpoint: mean survival time, dose: 200.0 mg/kg/injection, schedule: Q04DX003 (ip), vehicle: Klucel (hydroxypropylcellulose) (HPC)
[7] = endpoint: mean survival time, dose: 25.0 mg/kg/injection, schedule: Q01DX001 (ip), vehicle: saline with Tween-80
[8] = endpoint: mean survival time, dose: 50.0 mg/kg/injection, schedule: Q01DX001 (ip), vehicle: saline with Tween-80
[9] = endpoint: mean survival time, dose: 100.0 mg/kg/injection, schedule: Q01DX001 (ip), vehicle: saline with Tween-80
[10] = endpoint: mean survival time, dose: 400.0 mg/kg/injection, schedule: Q01DX001 (ip), vehicle: saline with Tween-80
[11] = endpoint: mean survival time, dose: 100.0 mg/kg/injection, schedule: Q04DX003 (ip), vehicle: saline with Tween-80
[12] = endpoint: mean survival time, dose: 200.0 mg/kg/injection, schedule: Q04DX003 (ip), vehicle: saline with Tween-80
[13] = endpoint: mean survival time, dose: 400.0 mg/kg/injection, schedule: Q04DX003 (ip), vehicle: saline with Tween-80
[14] = endpoint: mean survival time, dose: 100.0 mg/kg/injection, schedule: Q04DX003 (ip), vehicle: saline
[15] = endpoint: mean survival time, dose: 200.0 mg/kg/injection, schedule: Q04DX003 (ip), vehicle: saline
[16] = endpoint: mean survival time, dose: 400.0 mg/kg/injection, schedule: Q04DX003 (ip), vehicle: saline
[17] = endpoint: mean survival time, dose: 100.0 mg/kg/injection, schedule: Q01DX001 (ip), vehicle: saline
[18] = endpoint: mean survival time, dose: 400.0 mg/kg/injection, schedule: Q01DX001 (ip), vehicle: saline
[19] = endpoint: mean survival time, dose: 100.0 mg/kg/injection, schedule: Q01DX009 (ip), vehicle: saline with Tween-80
[20] = endpoint: mean survival time, dose: 200.0 mg/kg/injection, schedule: Q01DX009 (ip), vehicle: saline with Tween-80
[21] = endpoint: mean survival time, dose: 400.0 mg/kg/injection, schedule: Q01DX009 (ip), vehicle: saline with Tween-80

Measured: T/C

Nc1nc(N)c2cc(S(=O)(=O)c3ccccc3)ccc2n1
inactive: endpoint: median survival time, dose: 25.0 mg/kg/injection, schedule: Q01DX009 (ip), vehicle: saline with Tween-80 110 % of control | endpoint: median survival time, dose: 400.0 mg/kg/injection, schedule: Q01DX009 (ip), vehicle: saline with Tween-80 108 % of control | endpoint: median survival time, dose: 800.0 mg/kg/injection, schedule: Q01DX009 (ip), vehicle: saline with Tween-80 117 % of control

Cc1ccc(C(=O)CCCC(=O)O)c(O)c1
inactive: [1] 96 % of control | [2] 97 % of control | [3] 102 % of control | [4] 104 % of control | [5] 93 % of control | [6] 112 % of control | endpoint: mean survival time, dose: 400.0 mg/kg/injection, schedule: Q01DX001 (ip), vehicle: Klucel (hydroxypropylcellulose) (HPC) 95 % of control | endpoint: mean survival time, dose: 400.0 mg/kg/injection, schedule: Q01DX009 (ip), vehicle: Klucel (hydroxypropylcellulose) (HPC) 92 % of control | endpoint: mean survival time, dose: 400.0 mg/kg/injection, schedule: Q04DX003 (ip), vehicle: Klucel (hydroxypropylcellulose) (HPC) 100 % of control

Cc1ccc(OC(=O)C(C(=O)Oc2ccc(C)cc2)C(=O)Oc2ccc(C)cc2)cc1
inactive: [7] 104 % of control | [8] 101 % of control | [9] 95 % of control and 98 % of control

CCC(C1=CCCCC1)c1nc2c([nH]1)c(=O)n(C)c(=O)n2C (centres undefined)
inactive: endpoint: mean survival time, dose: 50.0 mg/kg/injection, schedule: Q01DX001 (ip), vehicle: other 101 % of control | endpoint: mean survival time, dose: 100.0 mg/kg/injection, schedule: Q01DX001 (ip), vehicle: other 90 % of control | endpoint: mean survival time, dose: 200.0 mg/kg/injection, schedule: Q01DX001 (ip), vehicle: other 90 % of control | endpoint: mean survival time, dose: 400.0 mg/kg/injection, schedule: Q01DX001 (ip), vehicle: other 97 % of control

O=C(CCl)Nc1ccc(N=Nc2ccccc2)cc1
inactive: endpoint: mean survival time, dose: 25.0 mg/kg/injection, schedule: Q01DX009 (ip), vehicle: Klucel (hydroxypropylcellulose) (HPC) 90 % of control | endpoint: mean survival time, dose: 50.0 mg/kg/injection, schedule: Q01DX009 (ip), vehicle: Klucel (hydroxypropylcellulose) (HPC) 90 % of control

COC(=O)c1cccc2cn3ccc4c5ccccc5nc-4c3cc12
inactive: [7] 98 % of control | [8] 92 % of control | [9] 95 % of control and 92 % of control | [10] 92 % of control

Cc1cc(C)c(C(=O)Oc2ccc3ccccc3c2)c(C)c1
inactive: [11] 92 % of control | [12] 92 % of control | [13] 86 % of control

Cc1nc(N)[nH]c(=O)c1N (tested in a mixture with another compound)
inactive: [9] 103 % of control | endpoint: mean survival time, dose: 200.0 mg/kg/injection, schedule: Q01DX001 (ip), vehicle: saline with Tween-80 107 % of control | [10] 97 % of control

O=C(O)/C=C\C(=O)Nc1ccc2c(c1)Cc1cc(Cl)ccc1-2
inactive: [11] 92 % of control | [12] 87 % of control

O=C1c2ccccc2C(O)(O)C1(O)C1(O)C(=O)c2ccccc2C1(O)O (centres undefined)
inactive: endpoint: mean survival time, dose: 100.0 mg/kg/injection, schedule: Q01DX001 (ip), vehicle: carboxymethylcellulose (CMC) 109 % of control | endpoint: mean survival time, dose: 200.0 mg/kg/injection, schedule: Q01DX001 (ip), vehicle: carboxymethylcellulose (CMC) 103 % of control

C=CCN(CC=C)c1ccc(N(CC)CC)cc1
inactive: [2] 86 % of control | [14] 97 % of control | [5] 86 % of control | [15] 105 % of control | [16] 105 % of control

O=C(Nc1cccc(Cl)c1)c1cc(N=Nc2ccc([N+](=O)[O-])cc2Cl)ccc1O
inactive: [3] 103 % of control | [6] 104 % of control

O=C1c2cccc3cccc(c23)C(=O)N1c1ncn[nH]1
inactive: endpoint: mean survival time, dose: 50.0 mg/kg/injection, schedule: Q01DX001 (ip), vehicle: saline 94 % of control | [17] 107 % of control | [18] 102 % of control

O=C(O)c1cccc(CCc2ccccc2)c1
inactive: [1] 102 % of control | [4] 100 % of control

CC1(C2CC2)NC(=O)NC1=O (centres undefined)
inactive: endpoint: mean survival time, dose: 100.0 mg/kg/injection, schedule: Q01DX009 (ip), vehicle: saline 97 % of control | [14] 92 % of control | endpoint: mean survival time, dose: 200.0 mg/kg/injection, schedule: Q01DX009 (ip), vehicle: saline 89 % of control | [15] 97 % of control | endpoint: mean survival time, dose: 400.0 mg/kg/injection, schedule: Q01DX009 (ip), vehicle: saline 95 % of control | [16] 95 % of control

O=C(Nc1ccccc1Br)c1ccc(Cl)cc1Cl
inactive: endpoint: mean survival time, dose: 75.0 mg/kg/injection, schedule: Q01DX009 (ip), vehicle: Klucel (hydroxypropylcellulose) (HPC) 96 % of control | endpoint: mean survival time, dose: 100.0 mg/kg/injection, schedule: Q04DX002 (ip), vehicle: Klucel (hydroxypropylcellulose) (HPC) 93 % of control | endpoint: mean survival time, dose: 150.0 mg/kg/injection, schedule: Q01DX009 (ip), vehicle: Klucel (hydroxypropylcellulose) (HPC) 96 % of control | endpoint: mean survival time, dose: 200.0 mg/kg/injection, schedule: Q04DX002 (ip), vehicle: Klucel (hydroxypropylcellulose) (HPC) 107 % of control | endpoint: mean survival time, dose: 300.0 mg/kg/injection, schedule: Q01DX009 (ip), vehicle: Klucel (hydroxypropylcellulose) (HPC) 100 % of control | endpoint: mean survival time, dose: 400.0 mg/kg/injection, schedule: Q04DX002 (ip), vehicle: Klucel (hydroxypropylcellulose) (HPC) 97 % of control

CC1(C)CC(=O)C=C(N2CCC(CCCC3CCN(C4=CC(=O)CC(C)(C)C4)CC3)CC2)C1
inactive: endpoint: mean survival time, dose: 50.0 mg/kg/injection, schedule: Q04DX003 (ip), vehicle: saline with Tween-80 94 % of control | [11] 102 % of control | [12] 88 % of control

O=C(CN1CCOCC1)Nc1cccc(C(F)(F)F)c1
inactive: [19] 96 % of control | [11] 101 % of control | [20] 104 % of control | [12] 111 % of control | [21] 109 % of control | [13] 97 % of control

CC1COP(Oc2ccccc2)O1 (centres undefined)
inactive: [17] 113 % of control | endpoint: mean survival time, dose: 200.0 mg/kg/injection, schedule: Q01DX001 (ip), vehicle: saline 115 % of control | [18] 96 % of control

CC1(C)CC(C(N)=O)C(=O)O1 (centres undefined)
inactive: [11] 101 % of control | [12] 103 % of control | [13] 101 % of control

COC(=O)C1CCC2c3ccccc3C(C1)c1ccccc12 (centres undefined)
inactive: [19] 97 % of control | [11] 101 % of control | [20] 95 % of control | [12] 95 % of control | [21] 94 % of control | [13] 93 % of control

C#CCONC(=O)c1ccc(OC)cc1
inactive: endpoint: mean survival time, dose: 25.0 mg/kg/injection, schedule: Q01DX009 (ip), vehicle: carboxymethylcellulose (CMC) 98 % of control | endpoint: mean survival time, dose: 50.0 mg/kg/injection, schedule: Q01DX009 (ip), vehicle: carboxymethylcellulose (CMC) 98 % of control | endpoint: mean survival time, dose: 100.0 mg/kg/injection, schedule: Q01DX009 (ip), vehicle: carboxymethylcellulose (CMC) 96 % of control

NC(Cc1c[nH]c2cc(F)ccc12)C(=O)O (centres undefined)
inactive: endpoint: mean survival time, dose: 100.0 mg/kg/injection, schedule: Q01DX009 (ip), vehicle: other 97 % of control | endpoint: mean survival time, dose: 200.0 mg/kg/injection, schedule: Q01DX009 (ip), vehicle: other 96 % of control | endpoint: mean survival time, dose: 400.0 mg/kg/injection, schedule: Q01DX009 (ip), vehicle: other 97 % of control

CC(C)=C(c1ccc(Cl)cc1)c1c(N)ncnc1N
inactive: [11] 100 % of control | [12] 100 % of control | [13] 100 % of control

CCOC(=O)c1nc(N)n[nH]1
inactive: [11] 106 % of control | [12] 104 % of control | [13] 101 % of control

CCOC(OCC)C(=O)C(C#N)c1ccc(Cl)c(Cl)c1 (centres undefined)
inactive: endpoint: mean survival time, dose: 5.0 mg/kg/injection, schedule: Q01DX001 (ip), vehicle: saline 109 % of control | endpoint: mean survival time, dose: 10.0 mg/kg/injection, schedule: Q01DX001 (ip), vehicle: saline 100 % of control | endpoint: mean survival time, dose: 20.0 mg/kg/injection, schedule: Q01DX001 (ip), vehicle: saline 105 % of control | endpoint: mean survival time, dose: 40.0 mg/kg/injection, schedule: Q01DX001 (ip), vehicle: saline 97 % of control | endpoint: mean survival time, dose: 80.0 mg/kg/injection, schedule: Q01DX001 (ip), vehicle: saline 97 % of control

CC(C)(C)C(=O)CS(=O)(=O)C(Br)C(=O)C(C)(C)C (centres undefined)
inactive: [3] 100 % of control

O=C(/C=C/c1cccnc1)/C=C/c1cccnc1
inactive: endpoint: mean survival time, dose: 80.0 mg/kg/injection, schedule: Q01DX009 (ip), vehicle: Klucel (hydroxypropylcellulose) (HPC) 108 % of control
